# Test results from the NIST ThermoML archive (doi:10.1016/j.jct.2016.08.008).
# ± gives the expanded uncertainty stated by the source.
# Test: activity coefficient (dimensionless); of the first substance listed, at infinite dilution; xn = mol fraction of the nth substance listed
# Conditions: 101.33 kPa, Liquid, Chromatography, x1 = 0
Structure (SMILES),activity coefficient (318.15 K),activity coefficient (328.15 K),activity coefficient (338.15 K),activity coefficient (348.15 K),activity coefficient (358.15 K),activity coefficient (368.15 K)
CCCCC [pentane] + CCCCCCCCCCCCn1cc[n+](C)c1.O=S(=O)([N-]S(=O)(=O)C(F)(F)F)C(F)(F)F,2.55 ± 0.17,2.6 ± 0.18,2.66 ± 0.18,2.71 ± 0.18,2.76 ± 0.19,2.81 ± 0.19
CCCCCCCC [octane] + CCCCCCCCCCCCn1cc[n+](C)c1.O=S(=O)([N-]S(=O)(=O)C(F)(F)F)C(F)(F)F,4.17 ± 0.28,4.22 ± 0.29,4.27 ± 0.29,4.32 ± 0.29,4.37 ± 0.3,4.42 ± 0.3
c1ccccc1 [benzene] + CCCCCCCCCCCCn1cc[n+](C)c1.O=S(=O)([N-]S(=O)(=O)C(F)(F)F)C(F)(F)F,0.568 ± 0.041,0.594 ± 0.042,0.619 ± 0.043,0.644 ± 0.044,0.669 ± 0.045,0.694 ± 0.047
CCC(=O)OC [methyl propanoate] + CCCCCCCCCCCCn1cc[n+](C)c1.O=S(=O)([N-]S(=O)(=O)C(F)(F)F)C(F)(F)F,0.531 ± 0.039,0.557 ± 0.04,0.583 ± 0.041,0.608 ± 0.043,0.634 ± 0.044,0.659 ± 0.045
CC(C)=O [acetone] + CCCCCCCCCCCCn1cc[n+](C)c1.O=S(=O)([N-]S(=O)(=O)C(F)(F)F)C(F)(F)F,0.353 ± 0.032,0.369 ± 0.033,0.386 ± 0.033,0.401 ± 0.034,0.417 ± 0.035,0.432 ± 0.035
COC(C)(C)C [2-methoxy-2-methylpropane] + CCCCCCCCCCCCn1cc[n+](C)c1.O=S(=O)([N-]S(=O)(=O)C(F)(F)F)C(F)(F)F,0.93 ± 0.059,0.985 ± 0.062,1.04 ± 0.07,1.09 ± 0.07,1.14 ± 0.07,1.2 ± 0.08
C=CCCCC [hex-1-ene] + CCCCCCCCCCCCn1cc[n+](C)c1.O=S(=O)([N-]S(=O)(=O)C(F)(F)F)C(F)(F)F,2.15 ± 0.15,2.2 ± 0.15,2.25 ± 0.15,2.29 ± 0.16,2.34 ± 0.16,2.38 ± 0.16
CCC(C)CC [3-methylpentane] + CCCCCCCCCCCCn1cc[n+](C)c1.O=S(=O)([N-]S(=O)(=O)C(F)(F)F)C(F)(F)F,2.77 ± 0.19,2.83 ± 0.19,2.89 ± 0.2,2.94 ± 0.2,2.99 ± 0.2,3.04 ± 0.21
C#CCCC [1-pentyne] + CCCCCCCCCCCCn1cc[n+](C)c1.O=S(=O)([N-]S(=O)(=O)C(F)(F)F)C(F)(F)F,1.07 ± 0.07,1.11 ± 0.07,1.16 ± 0.07,1.2 ± 0.08,1.24 ± 0.08,1.28 ± 0.08
CC(C)c1ccccc1 [isopropylbenzene] + CCCCCCCCCCCCn1cc[n+](C)c1.O=S(=O)([N-]S(=O)(=O)C(F)(F)F)C(F)(F)F,1.15 ± 0.07,1.2 ± 0.08,1.24 ± 0.08,1.28 ± 0.08,1.32 ± 0.09,1.36 ± 0.09
CCCCCC [hexane] + CCCCCCCCCCCCn1cc[n+](C)c1.O=S(=O)([N-]S(=O)(=O)C(F)(F)F)C(F)(F)F,2.96 ± 0.2,3.02 ± 0.21,3.09 ± 0.21,3.14 ± 0.21,3.2 ± 0.22,3.26 ± 0.22
CCCCCCCCC [nonane] + CCCCCCCCCCCCn1cc[n+](C)c1.O=S(=O)([N-]S(=O)(=O)C(F)(F)F)C(F)(F)F,4.92 ± 0.34,4.97 ± 0.34,5.03 ± 0.34,5.08 ± 0.35,5.13 ± 0.35,5.17 ± 0.35
CCC[N+](=O)[O-] [1-nitropropane] + CCCCCCCCCCCCn1cc[n+](C)c1.O=S(=O)([N-]S(=O)(=O)C(F)(F)F)C(F)(F)F,0.567 ± 0.041,0.582 ± 0.041,0.596 ± 0.042,0.609 ± 0.043,0.621 ± 0.043,0.634 ± 0.044
CCCC(=O)OC [methyl butanoate] + CCCCCCCCCCCCn1cc[n+](C)c1.O=S(=O)([N-]S(=O)(=O)C(F)(F)F)C(F)(F)F,0.613 ± 0.043,0.643 ± 0.044,0.674 ± 0.046,0.704 ± 0.047,0.733 ± 0.049,0.762 ± 0.05
CCO [ethanol] + CCCCCCCCCCCCn1cc[n+](C)c1.O=S(=O)([N-]S(=O)(=O)C(F)(F)F)C(F)(F)F,1.38 ± 0.09,1.3 ± 0.08,1.23 ± 0.08,1.17 ± 0.07,1.11 ± 0.07,1.06 ± 0.07
CCCC=O [butanal] + CCCCCCCCCCCCn1cc[n+](C)c1.O=S(=O)([N-]S(=O)(=O)C(F)(F)F)C(F)(F)F,0.464 ± 0.036,0.486 ± 0.037,0.51 ± 0.038,0.531 ± 0.039,0.554 ± 0.04,0.575 ± 0.041
COC(C)=O [methyl ethanoate] + CCCCCCCCCCCCn1cc[n+](C)c1.O=S(=O)([N-]S(=O)(=O)C(F)(F)F)C(F)(F)F,0.503 ± 0.038,0.525 ± 0.039,0.546 ± 0.04,0.566 ± 0.041,0.586 ± 0.042,0.606 ± 0.042
C=Cc1ccccc1 [styrene] + CCCCCCCCCCCCn1cc[n+](C)c1.O=S(=O)([N-]S(=O)(=O)C(F)(F)F)C(F)(F)F,0.632 ± 0.044,0.666 ± 0.045,0.702 ± 0.047,0.736 ± 0.049,0.771 ± 0.05,0.804 ± 0.052
C1CCCCCCC1 [cyclooctane] + CCCCCCCCCCCCn1cc[n+](C)c1.O=S(=O)([N-]S(=O)(=O)C(F)(F)F)C(F)(F)F,2.8 ± 0.19,2.82 ± 0.19,2.83 ± 0.19,2.84 ± 0.19,2.85 ± 0.19,2.86 ± 0.19
"Cc1ccccc1C [1,2-dimethylbenzene] + CCCCCCCCCCCCn1cc[n+](C)c1.O=S(=O)([N-]S(=O)(=O)C(F)(F)F)C(F)(F)F",0.812 ± 0.053,0.851 ± 0.055,0.892 ± 0.057,0.93 ± 0.06,0.968 ± 0.061,1.01 ± 0.06
C=CCCCCCCCC [1-decene] + CCCCCCCCCCCCn1cc[n+](C)c1.O=S(=O)([N-]S(=O)(=O)C(F)(F)F)C(F)(F)F,4.18 ± 0.28,4.27 ± 0.29,4.36 ± 0.3,4.44 ± 0.3,4.52 ± 0.31,4.6 ± 0.31
C#CCCCCCC [1-octyne] + CCCCCCCCCCCCn1cc[n+](C)c1.O=S(=O)([N-]S(=O)(=O)C(F)(F)F)C(F)(F)F,1.74 ± 0.12,1.8 ± 0.12,1.87 ± 0.13,1.93 ± 0.13,1.99 ± 0.14,2.06 ± 0.14
